Calls of active or inactive are those of the source. The calls are words filed in the database; no cut-off is given here. Starred links: 1 amine or outer side, 2 acyl side, 3 side chain; linkers in the order of their positions; H or OH if unused. Positions of bridges follow the written chain, without caps; N, C: chain ends. Non-standard residues stand in square brackets, D forms with d. Residues, ends and D or L forms follow the SMILES beside them. ξ: configuration not given here. mXylylene = c1cc(C[*:1])cc(C[*:2])c1; ξhCys = NC(CCS)C(=O)O
Columns and labels:
[1] = target: Envelope glycoprotein gp160 (Human immunodeficiency virus 1) (UniProt Q6QLK5); test: Binding affinity to HIV1 GP41 using GP41 NHR derived N36 peptide at 500 uM incubated for 30 mins by size exclusion HPLC analysis
Chain of Envelope glycoprotein gp160 (Human immunodeficiency virus 1) (Q6QLK5 1-814): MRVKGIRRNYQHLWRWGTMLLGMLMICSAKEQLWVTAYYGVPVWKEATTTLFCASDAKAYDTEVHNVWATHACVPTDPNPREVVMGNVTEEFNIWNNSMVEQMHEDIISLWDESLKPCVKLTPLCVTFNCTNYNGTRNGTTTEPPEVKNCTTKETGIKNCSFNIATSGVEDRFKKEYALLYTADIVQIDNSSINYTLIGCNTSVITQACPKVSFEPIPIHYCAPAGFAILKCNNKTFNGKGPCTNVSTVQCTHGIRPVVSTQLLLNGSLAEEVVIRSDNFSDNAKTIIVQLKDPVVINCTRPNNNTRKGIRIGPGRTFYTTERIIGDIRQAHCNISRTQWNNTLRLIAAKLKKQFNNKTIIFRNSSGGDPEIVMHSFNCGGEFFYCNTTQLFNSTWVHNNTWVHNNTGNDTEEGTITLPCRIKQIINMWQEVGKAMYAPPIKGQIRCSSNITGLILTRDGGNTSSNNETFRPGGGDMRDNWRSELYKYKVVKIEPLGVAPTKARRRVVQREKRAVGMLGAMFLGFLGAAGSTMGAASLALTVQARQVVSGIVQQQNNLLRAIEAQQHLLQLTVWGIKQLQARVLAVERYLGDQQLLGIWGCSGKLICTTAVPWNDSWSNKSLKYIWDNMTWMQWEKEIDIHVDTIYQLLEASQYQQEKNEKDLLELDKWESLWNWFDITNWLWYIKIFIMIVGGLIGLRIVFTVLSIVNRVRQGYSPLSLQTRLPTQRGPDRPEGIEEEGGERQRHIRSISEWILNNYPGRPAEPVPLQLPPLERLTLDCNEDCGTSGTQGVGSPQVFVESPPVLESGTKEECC

[2] = tested on: Human immunodeficiency virus 1; test: (§1) Synergistic antiviral activity against T20 resistant HIV1 NL4-3 harboring with V38E/N42S mutant infected in human MT2 cells or CEMx174 5.25 M7 cells assessed as reduction in p24 Gag protein production by measuring combination index at 3500:1 compound to HP23 ratio measured at 4 days post-infection by ELISA; assay type: functional
[3] = target: Envelope glycoprotein gp160 (Human immunodeficiency virus 1) (UniProt Q6QLK5); test: (§2) Ratio of EC50 for inhibition of HIV1 gp41-induced cell-cell fusion between viral envelope expressing human HL2/3 cells to CD4/CCR5 receptor expressing TZM-bl cells in absence of HP23 to EC50 for inhibition of HIV1 gp41-induced cell-cell fusion between viral envelope expressing human HL2/3 cells to CD4/CCR5 receptor expressing TZM-bl cells at 1:1 compound to HP23 ratio
[4] = target: Envelope glycoprotein gp160 (Human immunodeficiency virus 1) (UniProt Q6QLK5); test: Binding affinity to HIV1 GP41 using GP41 NHR derived N36 peptide assessed as melting temperature at 10 uM incubated for 30 mins by CD spectroscopy
[5] = tested on: Human immunodeficiency virus 1; test: (§3) Ratio of EC50 for antiviral activity against X4 tropic HIV-1 subtype-B 3B infected in human MT2 cells or CEMx174 5.25 M7 cells in absence of HP23 to EC50 for antiviral activity against X4 tropic HIV-1 subtype-B 3B infected in human MT2 cells or CEMx174 5.25 M7 cells at 12:1 compound to HP23 ratio; assay type: functional, HIV-1 group M
[6] = tested on: Human immunodeficiency virus 1; test: as §1, with “V38E/N42T” for “V38E/N42S”, “600:1” for “3500:1”; assay type: functional
[7] = Metabolic stability in rat plasma assessed as parent compound remaining at 3 to 100 uM after 4 hrs by RP-HPLC analysis; assay type: ADME, cell-free; details: read-out: Stability
[8] = tested on: Human immunodeficiency virus 1; test: Synergistic antiviral activity against X4 tropic HIV-1 subtype-B 3B infected in human MT2 cells or CEMx174 5.25 M7 cells assessed as reduction in p24 Gag protein production by measuring combination index at 12:1 compound to HP23 ratio measured at 4 days post-infection by ELISA; assay type: functional, HIV-1 group M
[9] = target: Envelope glycoprotein gp160 (Human immunodeficiency virus 1) (UniProt Q6QLK5); test: as §2, with “4:1” for “1:1”
[10] = tested on: Human immunodeficiency virus 1; test: as §1, with “14000:1” for “3500:1”; assay type: functional
[11] = tested on: Human immunodeficiency virus 1; test: Antiviral activity against T20 resistant HIV1 NL4-3 harboring with V38E/N42T mutant infected in human MT2 cells or CEMx174 5.25 M7 cells assessed as reduction in p24 Gag protein production at 600:1 compound to HP23 ratio measured at 4 days post-infection by ELISA; assay type: functional, organism-based
[12] = tested on: Human immunodeficiency virus 1; test: as §1, with “V38E/N42T” for “V38E/N42S”, “300:1” for “3500:1”; assay type: functional
[13] = tested on: Human immunodeficiency virus 1; test: Synergistic antiviral activity against X4 tropic HIV-1 subtype-B 3B infected in human MT2 cells or CEMx174 5.25 M7 cells assessed as reduction in p24 Gag protein production by measuring combination index at 24:1 compound to HP23 ratio measured at 4 days post-infection by ELISA; assay type: functional, HIV-1 group M
[14] = target: Envelope glycoprotein gp160 (Human immunodeficiency virus 1) (UniProt Q6QLK5); test: as §2, with “2:1” for “1:1”
[15] = tested on: Human immunodeficiency virus 1; test: Antiviral activity against T20 resistant HIV1 NL4-3 harboring with V38E/N42T mutant infected in human MT2 cells or CEMx174 5.25 M7 cells assessed as reduction in p24 Gag protein production at 150:1 compound to HP23 ratio measured at 4 days post-infection by ELISA; assay type: functional, organism-based
[16] = target: Envelope glycoprotein gp160 (Human immunodeficiency virus 1) (UniProt Q6QLK5); test: Binding affinity to HIV1 GP41 using GP41 NHR derived N36 peptide assessed as formation of secondary structure at 10 uM incubated for 30 mins by CD spectroscopy
[17] = tested on: Human immunodeficiency virus 1; test: Antiviral activity against R5 tropic HIV-1 subtype-B Bal infected in human MT2 cells or CEMx174 5.25 M7 cells assessed as reduction in p24 Gag protein production at 3:1 ratio of compound to HP23 measured at 4 days post-infection by ELISA; assay type: functional, cell-based, HIV-1 group M; details: Human immunodeficiency virus 1, Bal, 96 h
[18] = Cytotoxicity against human TZM-bl cells assessed as reduction in viability after 2 days by XTT assay; assay type: cell-based
[19] = target: Envelope glycoprotein gp160 (Human immunodeficiency virus 1) (UniProt Q6QLK5); test: Binding affinity to HIV1 GP41 using GP41 NHR derived N36 peptide assessed as molecular weight at 150 uM incubated for 30 mins by sedimentation Velocity analysis
[20] = tested on: Human immunodeficiency virus 1; test: Synergistic antiviral activity against HIV1 NL4-3 infected in human MT2 cells or CEMx174 5.25 M7 cells assessed as reduction in p24 Gag protein production by measuring combination index at 20:1 compound to HP23 ratio measured at 4 days post-infection by ELISA; assay type: functional
[21] = tested on: Human immunodeficiency virus 1; test: Antiviral activity against T2635 resistant HIV1 LAI harboring Q66R mutant infected in human MT2 cells or CEMx174 5.25 M7 cells assessed as reduction in p24 Gag protein production at 25:1 ratio of hCS6ERE to compound measured at 4 days post infection by ELISA; assay type: functional, organism-based, M:B_Lai
[22] = target: Envelope glycoprotein gp160 (Human immunodeficiency virus 1) (UniProt Q6QLK5); test: as §2, with “4:1 ratio of hCS6ERE to” for “1:1”, “compound” for “compound to HP23 ratio”
[23] = tested on: Human immunodeficiency virus 1; test: Antiviral activity against X4 tropic HIV-1 subtype-B 3B infected in human MT2 cells or CEMx174 5.25 M7 cells assessed as reduction in p24 Gag protein production at 12:1 ratio of hCS6ERE to compound measured at 4 days post-infection by ELISA; assay type: functional, cell-based, HIV-1 group M; details: Human immunodeficiency virus 1, 3B, 96 h
[24] = tested on: Human immunodeficiency virus 1; test: Antiviral activity against T2635 resistant HIV1 LAI harboring Q66R mutant infected in human MT2 cells or CEMx174 5.25 M7 cells assessed as reduction in p24 Gag protein production at 12.5:1 ratio of hCS6ERE to compound measured at 4 days post infection by ELISA; assay type: functional, organism-based, M:B_Lai
[25] = tested on: Human immunodeficiency virus 1; test: Antiviral activity against T20 resistant HIV1 NL4-3 harboring with V38E/N42S mutant infected in human MT2 cells or CEMx174 5.25 M7 cells assessed as reduction in p24 Gag protein production at 3500:1 hCS6ERE to compound ratio measured at 4 days post-infection by ELISA; assay type: functional, organism-based
[26] = tested on: Human immunodeficiency virus 1; test: as §3, with “T20 resistant HIV1 NL4-3 harboring with V38E/N42S mutant” for “X4 tropic HIV-1 subtype-B 3B”, “hCS6ERE” for “HP23”, “7000:1 hCS6ERE to” for “12:1”, “compound” for “compound to HP23”; assay type: functional

CC[C@H](C)[C@H](NC(C)=O)C(=O)N[C@@H](CCC(=O)O)C(=O)N[C@@H](CCC(=O)O)C(=O)N[C@@H](CC(C)C)C(=O)N[C@H](C(=O)NC1CCSCc2cccc(c2)CSCCC(C(=O)N[C@@H](CCC(N)=O)C(=O)N[C@@H](CCC(N)=O)C(=O)N[C@@H](CCCNC(=N)N)C(=O)N[C@@H](CCCCN)C(=O)N[C@@H](CC(N)=O)C(=O)N[C@@H](CCC(=O)O)C(=O)N[C@@H](CCC(=O)O)C(=O)N[C@@H](C)C(=O)N[C@@H](CC(C)C)C(=O)N[C@@H](CCCNC(=N)N)C(=O)N[C@@H](CCC(=O)O)C(=O)N[C@@H](CC(C)C)C(N)=O)NC(=O)[C@H](CCC(N)=O)NC(=O)[C@H](C)NC(=O)[C@H](C)NC1=O)[C@@H](C)CC (stereo partly specified) (Ac-IEELI[ξhCys]AAQ[ξhCys]QQRKNEEALREL-NH2; linker 6-10 via mXylylene)
Activity [1]: Active
CI [2]: 0.7
Ratio EC50 [3]: 2
Tm [4]: 57.6 °C
Ratio EC50 [5]: 2.4
CI [6]: 0.7
remaining at 4 h, up to 100 µM [7]: 100%
CI [8]: 0.7
Ratio EC50 [9]: 2.9
CI [10]: 0.6
EC50 [11]: 468 nM
CI [12]: 0.8
CI [13]: 0.9
Ratio EC50 [14]: 2
EC50 [15]: 327 nM
Activity [16]: Active
EC50 [17]: 4.1 nM
CC50 at 48 h [18]: > 800000 nM
Activity [19]: 19.2 kDa
CI [20]: 0.8

H-EMTWEEWEKKIEEYTKKIEEILK-OH
EC50 [21]: 1.5 nM
Ratio EC50 [22]: 6.2
EC50 [23]: 0.9 nM
EC50 [24]: 1.8 nM
EC50 [25]: 0.6 nM
Ratio EC50 [26]: 3.5

Reference: ChEMBL document CHEMBL4334495, “Design and Biological Evaluation of m-Xylene Thioether-Stapled Short Helical Peptides Targeting the HIV-1 gp41 Hexameric Coiled-Coil Fusion Complex” (J Med Chem, 2019)
